Legend:
[1] = test system: SNF1 mice; assay: Acceleration of SLE-associated nephritis by immunization with eluted peptides in adjuvant; format: in vivo, mouse
Excerpt: The animals received three more injections at two weeks interval with 50 micrograms of either an eluted peptide or the control peptide absorbed on alum (Pierce Chemical Co., Rockford, Ill.).

[2] = test system: Th clones 1D12, 5E9, 3F6, 1G1; assay: Helper assay: Th clones co-cultured with splenic B cells from SNF1 mice in presence of peptide; format: cell-based, mouse; conditions: responder Th clones 5E9 and 3F6
Procedure: IgG autoantibodies to ssDNA, dsDNA, histones, and nucleosomes were quantitated using an ELISA as described previously (Mohan, et al., 1995, J. Immunol., 154:1470-1480; Mohan, et al., 1993, J. Exp. Med. 177:1367-1381; Burlingame, et al., 1993, J. Clin. Invest. 91:1687-1696; Losman, et al., 1992, J. Immunol., 148:1561-1569). Sera were diluted 1:100 and heat-inactivated before use. Serum from normal BALB/c mice were used as negative control. Anti-DNA mAbs 564 and 205 were used to generate standard curves (Adams, et al., 1991, Proc. Natl. Acad. Sci. USA 88:11281-11275; Mohan, et al., 1995, J. Immunol., 154:1470-1480; Mohan, et al., 1993, J. Exp. Med. 177:1367-1381; Sainis and Datta, 1988, J. Immunol. 140:2215-2224). For IgG autoantibodies to ssDNA, histones and nucleosomes, 1 unit per milliliter was considered to be equivalent to the activity of one microgram per milliliter of mAb 564, which recognizes all three autoantigens (Mohan, et al., 1995, J. Immunol., 154:1470-1480; Mohan, et al., 1993, J. Exp. Med. 177:1367-1381), and for IgG anti-dsDNA, 1 unit per milliliter was equivalent to the binding of 0.6 micrograms per milliliter of the mAb 205.
After seven days of co-culture, the supernatants were assayed for IgG antibodies to the autoantigens (ds-DNA, ss-DNA, nucleosome, and histone) by ELISA. […]

[3] = test system: pathogenic Th clones from SNF1 mice; assay: Stimulation of nucleosome-specific pathogenic Th clones from SNF1 mice by eluted/synthetic peptides; format: cell-based, mouse; conditions: A20 or splenic B+Mφ as APC
Procedure: Fresh splenic, CD4^+ T cells (5×10^5/well) were co-cultured in triplicate wells at an initial concentration of 5×10^5 cells per well, with 10^6 cells per well of either irradiated B+Mφ or mitomycin-C treated A20 APC. Varying concentrations of either control or test peptides were added and the cultures were adjusted to 200 microliters final volume of HL-1 serum-free medium (Hycor Biomedical Inc., Irvine, Calif.) cultures were incubated for 96 hours in flat bottom 96-well plates, and at 18 hours prior to harvesting the cells, 1 microcurie of 3H-Thymidine was added to each well. The incorporated radioactivity was measured by scintillation counting. The Stimulation Index (SI) was calculated by dividing the mean counts per minute (cpm) incorporated in co-cultures of T cells and APC with test peptide by the mean cpm incorporated in control peptide co-cultures. In the case of cytokine assays, experiments were carried out as described for the proliferation assays except that the culture supernatants were removed from duplicate co-culture wells after 24-46 hours of incubation and cytokine assays were performed.
An aliquot of 50 microliters from each HPLC fraction was assayed for stimulating ability as described above. Four characterized Th clones were used as indicators of cytokine secretion (IL-2 and/or IL-4) in response to the peptide fractions, using A20 or splenic B+Mψ as APCs (Adams, et al., 1991, Proc. Natl. Acad. Sci. USA 88:11271-11275; Shi, et al., 1998, J. Exp. Med. 187:367-378). […] Only two out of one hundred fractions tested were able to stimulate Th cell clones. […] The latter was further separated as described, and tested for active fractions of HPLC purified peptides.. Three naturally processed and presented, stimulatory epitopes were identified using these procedures. The sequences of the peptides are as follows: SQKEEEEGAQREKE (EP-1, SEQ ID NO: 23); DWMEEEHGAQREKE (EP-2, SEQ ID NO: 24); and […] (EP-3, or H522-42, SEQ ID NO: 25). The first two peptides were homologous to sequences in a transcription factor, BRN-3, which is identical in chicken, mice and humans (GenBank). […] EP-1 is highly homologous to EP-2, but it also matched a sequence in cytomegalovirus envelope protein at aa position 57-70. Most likely these peptides are derived from some transcription factor in the chromatin that was incubated with the APC. The third sequence (EP-3) was derived from histone H5 (aa position 22-42) in chicken nucleosome, which is homologous to histone H1 sequence of mice and humans at amino acid position 22-42 ([…], SEQ ID NO:26). […] Therefore, the mouse H122-42 is the autoantigenic peptide in mice and is also referred to herein as EP-3. Nested sequences and unrelated sequences that were obtained in the active fractions from the eluates were also synthesized and re-tested.

“STDHPKYSDMIVAAIQAEKNR (Histone fragment) [H122-42]” was tested, and the “development of severe nephritis” value ([1]; by 28 weeks of age) was “all the EP-3 immunized mice developed severe nephritis”, the “onset/rate of disease relative to control group (CFA alone or OVA peptide in CFA)” value ([1]; immunization from 12 weeks) was “developed severe nephritis earlier” and the “time to severe nephritis in some immunized animals” value ([1]; just after the first booster immunization) was 2-3 weeks. The “mice succumbed to severe lupus nephritis” value ([1]; within four weeks of the first injection, peptide in CFA) was “Eighty percent”, the “augmentation of autoantibody-inducing help” value [2] was “almost as much as the whole nucleosome” and the “stimulation of pathogenic Th clones” value [3] was “equivalent to the chicken H52242 peptide”. For the same sequence, the “stimulation of pathogenic Th clones” value ([3]; listed as EP-3) was “stimulatory”.
